Measured values: US7595404B2, “Thiazolyl-substituted carbocyclic 1,3-diones as pesticidal agents” (Bayer CropScience AG, priority 2001, dated 2009)

Tests used:
[1] = system: caterpillars of the armyworm (Spodoptera frugiperda); assay: Spodoptera frugiperda test; format: in vivo; settings: 500 ppm, dipped cabbage leaves
Experimental: (§1) Spodoptera Frugiperda Test • Solvent: 7 parts by weight of dimethylformamide • Emulsifier: 2 parts by weight of alkylaryl polyglycol ether To produce a suitable preparation of active compound, 1 part by weight of active compound is mixed with the stated amounts of solvent and emulsifier, and the concentrate is diluted with emulsifier-containing water to the desired concentration. Cabbage leaves (Brassica oleracea) are treated by being dipped into the preparation of active compound of the desired concentration and are populated with caterpillars of the armyworm (Spodoptera frugiperda) while the leaves are still moist. After the desired period of time, the kill in % is determined. 100% means that all caterpillar larvae have been killed; 0% means that none of the caterpillar have been killed.

[2] = system: Galium; assay: Post-emergence test, Galium; format: in vivo; settings: post-emergence/greenhouse; 250 g a.i./ha; after three weeks
Experimental: (§2) • Solvent: 5 parts by weight of acetone • Emulsifier: 1 part by weight of alkylaryl polyglycol ether
(§3) To produce a suitable preparation of active compound, 1 part by weight of active compound is mixed with the stated amount of solvent, the stated amount of emulsifier is added and the concentrate is diluted with water to the desired concentration.
(§4) Test plants of a height of 5-15 cm are sprayed with the preparation of active compound such that the particular amounts of active compound desired are applied per unit area. The concentration of the spray liquor is chosen such that the particular amounts of active compound desired are applied in 1000 l of water/ha.
(§5) After three weeks, the degree of damage to the plants is rated in % damage in comparison to the development of the untreated control.
(§6) The figures denote: • 0% =no effect (like untreated control) • 100% =total destruction

[3] = system: Avena fatua; assay: Post-emergence test, Avena fatua; format: in vivo; settings: post-emergence/greenhouse; 250 g a.i./ha; after three weeks
Experimental: as §2, §3, §4, §5, §6

[4] = system: larvae of the mustard beetle (Phaedon cochleariae); assay: Phaedon larvae test; format: in vivo; settings: 500 ppm, dipped cabbage leaves
Experimental: as §1, with “Phaedon Larvae Test” for “Spodoptera Frugiperda Test”, “with larvae” for “with caterpillars”, “the mustard beetle (Phaedon cochleariae)” for “the armyworm (Spodoptera frugiperda)”, “all beetle” for “all caterpillar”, “the beetle larvae” for “the caterpillar”

[5] = system: Setaria; assay: Post-emergence test, Setaria; format: in vivo; settings: post-emergence/greenhouse; 250 g a.i./ha; after three weeks
Experimental: as §2, §3, §4, §5, §6

[6] = system: greenhouse red spider mite (Tetranychus urticae); assay: Tetranychus test (OP-resistant/dip treatment); format: in vivo; settings: 100 ppm, dipped bean plants
Experimental: Tetranychus test (OP-Resistant/Dip Treatment)
• Solvent: 30 parts by weight of dimethylformamide • Emulsifier: 1 part by weight of alkylaryl polyglycol ether
To produce a suitable preparation of active compound, 1 part by weight of active compound is mixed with the stated amounts of solvent and emulsifier, and the concentrate is diluted with emulsifier-containing water to the desired concentration.
Bean plants (Phaseolus vulgaris) which are heavily infested by all stages of the greenhouse red spider mite (Tetranychus urticae) are dipped into a preparation of active compound of the desired concentration.
After the desired period of time, the effect in % is determined. 100% means that all spider mites have been killed; 0% means that none of the spider mites have been killed.

[7] = system: Alopecurus; assay: Post-emergence test, Alopecurus; format: in vivo; settings: post-emergence/greenhouse; 250 g a.i./ha; after three weeks
Experimental: as §2, §3, §4, §5, §6

[8] = system: Lolium; assay: Pre-emergence test, Lolium; format: in vivo; settings: pre-emergence/greenhouse; 125 g a.i./ha; after three weeks
Experimental: as §2, §3
(§7) Seeds of the test plants are sown in normal soil. After about 24 hours, the soil is sprayed with the preparation of active compound such that the particular amounts of active compound desired are applied per unit area. The concentration of the spray liquor is chosen such that the particular amounts of active compound desired are applied in 1000 l of water/ha.
as §5, §6

[9] = system: Soya bean; assay: Pre-emergence test, Soya bean; format: in vivo; settings: pre-emergence/greenhouse; 125 g a.i./ha; after three weeks; crop
Experimental: as §2, §3, §7, §5, §6

[10] = system: Stellaria; assay: Pre-emergence test, Stellaria; format: in vivo; settings: pre-emergence/greenhouse; 125 g a.i./ha; after three weeks
Experimental: as §2, §3, §7, §5, §6

[11] = system: Sinapis; assay: Post-emergence test, Sinapis; format: in vivo; settings: post-emergence/greenhouse; 250 g a.i./ha; after three weeks
Experimental: as §2, §3, §4, §5, §6

[12] = system: Setaria; assay: Pre-emergence test, Setaria; format: in vivo; settings: pre-emergence/greenhouse; 125 g a.i./ha; after three weeks
Experimental: as §2, §3, §7, §5, §6

[13] = system: Meloidogyne incognita; assay: Meloidogyne test; format: in vivo; settings: 20 ppm active compound, nematicidal action by gall formation on lettuce roots
Experimental: Meloidogyne Test • Solvent: 30 parts by weight of dimethylformamide • Emulsifier: 1 part by weight of alkylaryl polyglycol ether To produce a suitable preparation of active compound, 1 part by weight of active compound is mixed with the stated amounts of solvent and emulsifier, and the concentrate is diluted with water to the desired concentration. Containers are filled with sand, solution of active compound, Meloidogyne incognita egg/larvae suspension and lettuce seeds. The lettuce seeds germinate the plants develop. On the roots, galls are formed. After the desired period of time, the nematicidal action is determined in % by the gall formation. 100% means that no galls have been found; 0% means that the number of galls on the treated plants corresponds to that of the untreated control.

[14] = system: Matricaria; assay: Pre-emergence test, Matricaria; format: in vivo; settings: pre-emergence/greenhouse; 125 g a.i./ha; after three weeks
Experimental: as §2, §3, §7, §5, §6

[15] = system: green peach aphid (Myzus persicae); assay: Myzus test (systemic action); format: in vivo; settings: 20 ppm, watering of infested Savoy cabbage (systemic)
Experimental: Myzus Test (Systemic Action) • Solvent: 7 parts by weight of dimethylformamide • Emulsifier: 2 parts by weight of alkylaryl polyglycol ether To produce a suitable preparation of active compound, 1 part by weight of active compound is mixed with the stated amounts of solvent and emulsifier, and the concentrate is diluted with emulsifier-containing water to the desired concentration. Savoy cabbage (Brassica oleracea) which is heavily infested by the green peach aphid (Myzus persicae) is watered with in each case 10 ml of preparation of active compound of the desired concentration such that the preparation of active compound penetrates into the soil without wetting the seedling. The active compound is taken up by the roots and transferred into the seedling. After the desired period of time, the kill in % is determined. 100% means that all aphids have been killed; 0% means that none of the aphids have been killed.

[16] = system: Digitaria; assay: Pre-emergence test, Digitaria; format: in vivo; settings: pre-emergence/greenhouse; 125 g a.i./ha; after three weeks
Experimental: as §2, §3, §7, §5, §6

[17] = system: Oilseed rape; assay: Pre-emergence test, Oilseed rape; format: in vivo; settings: pre-emergence/greenhouse; 125 g a.i./ha; after three weeks; crop
Experimental: as §2, §3, §7, §5, §6

[18] = system: Alopecurus; assay: Pre-emergence test, Alopecurus; format: in vivo; settings: pre-emergence/greenhouse; 125 g a.i./ha; after three weeks
Experimental: as §2, §3, §7, §5, §6

[19] = system: Pyricularia oryzae; format: cell-based; settings: 50% inhibition of fungal growth, tested at 0.1, 1, 10 and 100 ppm, 22° C., 3-5 days, photometric 620 nm
[20] = system: Septoria tritici; assay: In vitro test for the ED50 determination in microorganisms, Septoria tritici; format: cell-based; settings: 50% inhibition of fungal growth, tested at 0.1, 1, 10 and 100 ppm, 22° C., 3-5 days, photometric 620 nm
[21] = system: Ustilago avenae; assay: In vitro test for the ED50 determination in microorganisms, Ustilago avenae; format: cell-based; settings: 50% inhibition of fungal growth, tested at 0.1, 1, 10 and 100 ppm, 22° C., 3-5 days, photometric 620 nm
[22] = system: Avena fatua; assay: Pre-emergence test, Avena fatua; format: in vivo; settings: pre-emergence/greenhouse; 125 g a.i./ha; after three weeks
Experimental: as §2, §3, §7, §5, §6

[23] = system: Sugar beet; assay: Pre-emergence test, Sugar beet; format: in vivo; settings: pre-emergence/greenhouse; 125 g a.i./ha; after three weeks; crop
Experimental: as §2, §3, §7, §5, §6

[24] = system: Polygonum; assay: Pre-emergence test, Polygonum; format: in vivo; settings: pre-emergence/greenhouse; 125 g a.i./ha; after three weeks
Experimental: as §2, §3, §7, §5, §6

[25] = system: Sugar-beet; assay: Post-emergence test, Sugar beet; format: in vivo; settings: post-emergence/greenhouse; 250 g a.i./ha; after three weeks; crop
Experimental: as §2, §3, §4, §5, §6

[26] = system: Echinochloa; assay: Post-emergence test, Echinochloa; format: in vivo; settings: post-emergence/greenhouse; 250 g a.i./ha; after three weeks
Experimental: as §2, §3, §4, §5, §6

[27] = system: Abutilon; assay: Pre-emergence test, Abutilon; format: in vivo; settings: pre-emergence/greenhouse; 125 g a.i./ha; after three weeks
Experimental: as §2, §3, §7, §5, §6

[28] = system: Bromus; assay: Pre-emergence test, Bromus; format: in vivo; settings: pre-emergence/greenhouse; 125 g a.i./ha; after three weeks
Experimental: as §2, §3, §7, §5, §6

[29] = system: Wheat; assay: Pre-emergence test, Wheat; format: in vivo; settings: pre-emergence/greenhouse; 125 g a.i./ha; after three weeks; crop
Experimental: as §2, §3, §7, §5, §6

Compound	Kill rate in % after 7 d [1] [%]	% damage, Avena fatua [3] [%]	% damage, Setaria [5] [%]	Kill rate in % after 7 d [6] [%]	% damage, Alopecurus [7] [%]	% damage, Lolium [8] [%]	% damage, Soya bean [9] [%]	% damage, Stellaria [10] [%]	% damage, Sinapis [11] [%]	% damage, Setaria [12] [%]	% damage, Alopecurus [18] [%]	further results
CCOC(=O)OC1=C(c2nc(-c3ccc(Cl)cc3)sc2C)C(=O)CC(C)(C)C1 [Example I-2-c-1]	100	100	100	100	90							% damage, Galium [2]: 80%; Kill rate in % after 7 d [4]: 100%
Cc1sc(-c2ccc(Cl)cc2)nc1C1=C(O)C(C)(C)CC1=O [Example I-1-a-1]		100	100	100	100	100	0	100	70	100		Kill rate in % after 14 d [13]: 95%; % damage, Matricaria [14]: 100%
CCOC(=O)OC1=C(c2nc(-c3ccc(Cl)cc3)sc2C)C(=O)CC12CCCCC2 [Example I-1-c-2]						100		100			95	Kill rate in % after 10 d [15]: 95%; % damage, Digitaria [16]: 100%; % damage, Oilseed rape [17]: 0%
Cc1sc(-c2ccc(Cl)cc2)nc1C1=C(O)CCCC1=O [Example I-2-a-2]				99								ED50 value [19]: 1.96 ppm; ED50 value [20]: <0.1 ppm; ED50 value [21]: <0.1 ppm
CCc1sc(-c2ccc(Cl)cc2)nc1C1=C(O)C2(CCCCC2)CC1=O [Example I-1-a-3]		100	100		90				80		95	% damage, Avena fatua [22]: 100%; % damage, Digitaria [16]: 100%; % damage, Sugar beet [23]: 0%; % damage, Polygonum [24]: 100%
Cc1sc(-c2ccc(Cl)cc2)nc1C1=C(O)C(C)(C)CCC1=O [Example I-2-a-3]												ED50 value [19]: <0.1 ppm; ED50 value [20]: <0.1 ppm; ED50 value [21]: 0.1 ppm
CCOC(=O)OC1=C(c2nc(-c3ccc(Cl)cc3)sc2C)C(=O)CC1(C)C [Example I-1-c-1]	100	90	100	95					70			% damage, Sugar-beet [25]: 0%; % damage, Echinochloa [26]: 100%; Kill rate in % after 7 d [4]: 100%
Cc1sc(-c2ccc(Cl)cc2)nc1C1=C(O)CC(C)(C)CC1=O [Example I-2-a-1]	100	95	100	98	90	100	0			100		% damage, Sugar-beet [25]: 0%; % damage, Abutilon [27]: 70%; % damage, Bromus [28]: 95%; % damage, Echinochloa [26]: 100%
CCOC(=O)OC1=C(c2nc(-c3ccc(Cl)cc3)sc2CC)C(=O)CC12CCCCC2 [Example I-1-c-3]		100	100	98	100	100	0	70	80	100	95	Kill rate in % after 14 d [13]: 100%; % damage, Wheat [29]: 10%
